Data set [1] in a line: UV-vis spectrum, verification of absorption wavelength. The data set is classed as physicochemical. The text has this:
It can be said that the longer the wavelength of light used for a living body, the lower the cytotoxicity and the better the tissue permeability.

Data set [2] deals with T1, aggregated tau overexpressed in HEK cells (Homo sapiens, UniProt P10636).
T1 construct: expressed in transfected cells; host or cells: HEK cells (line called Fs17)
The data set can be described thus: Intracellular photooxygenation reaction evaluated by Western blotting. Type of data set: cell-based. Particulars: for crosslinked product (more than 250 kDa) of the photooxygenation reaction: 595 nm light 15 minutes. The procedure: An intracellular oxygenation reaction by the compounds PzT, OMe, Q, and J of the present invention was performed using HEK cells in which aggregated tau was overexpressed. Specifically, 10 uM of the compound of the present invention was added to a cell medium, and then irradiated with light at 595 nm for 15 minutes. After the reaction, viable cells were collected and lysed, and then the intracellular photooxygenation reaction was evaluated by measurement with Western blotting (FIG. 2). In a case where the compound of the present invention was not added, tau was detected between 75 kDa and 100 kDa by the 5A6 antibody that is a tau specific antibody, and a theoretical molecular weight of the overexpressed tau was about 70 kDa, and therefore, the tau was identified as a monomer.
Similarly, the compounds of the present invention C2OH, O, and O2 were also subjected to an intracellular oxygenation reaction. The cells overexpressing aggregated tau were incubated with a medium containing 1 μM of the compound of the present invention for 10 minutes. Thereafter, light of 595 nm was applied for 15 minutes. Reaction progress was identified and quantified by Western blotting measurements (FIG. 3). […] As a result, it was confirmed that a crosslinked product, which is one of products of a photooxygenation reaction, was detected in a region of more than 250 kDa on the right side of the lane to which the compound was added, whereas no crosslinked body was provided under non-light irradiation conditions, that is, on the left side of each lane in all the compounds, and the reaction proceeded in a light-dependent manner.
Background: Immunoblotting shows a protein as a band on a membrane.

Data set [3] has as its target T2, overexpressed tau (Homo sapiens, UniProt P10636).
T2 construct: expressed in transfected cells; host or cells: HEK cells (line called Fs17)
Briefly: LC-MS/MS analysis of methionine oxidation of overexpressed tau after intracellular reaction. The data set is classed as cell-based. The note with it: monomeric tau, trypsin digestion, FIG. 6. The procedure: LC-MS/MS analysis was performed on the reaction product in order to confirm the production of side chain oxygenates that were difficult to specifically detect as a result of overlapping with unreacted substances in Western blotting. Since side chain oxygenates are mainly produced by oxidation of methionine side chains to sulfoxide, it was focused on 4 methionines contained in overexpressed tau having a total length of 412 amino acids. The intracellular protein after the reaction was separated according to the molecular weight by SDS-page, monomeric tau was cut out by trypsin enzyme digestion, and LC-MS/MS measurement was performed. A ratio of the detection intensity of the methionine oxidant was calculated from the sum of the detection intensities of the methionine reductant and the oxidant obtained from MS1 in the LC-MS/MS spectrum (FIG. 6).

Setting [4] is: 10 uM compound in cell medium, 5A6 antibody, FIG. 2.

The results in this text go back to US20250313576A1, “COMPOUND FOR PHOTOO[…] AND MEDICINAL COMPOSITION CONTAINING SAME” (The University of Tokyo, priority 2021, published 2025).

T1 sequence (P10636 2-412 isoform P10636-7): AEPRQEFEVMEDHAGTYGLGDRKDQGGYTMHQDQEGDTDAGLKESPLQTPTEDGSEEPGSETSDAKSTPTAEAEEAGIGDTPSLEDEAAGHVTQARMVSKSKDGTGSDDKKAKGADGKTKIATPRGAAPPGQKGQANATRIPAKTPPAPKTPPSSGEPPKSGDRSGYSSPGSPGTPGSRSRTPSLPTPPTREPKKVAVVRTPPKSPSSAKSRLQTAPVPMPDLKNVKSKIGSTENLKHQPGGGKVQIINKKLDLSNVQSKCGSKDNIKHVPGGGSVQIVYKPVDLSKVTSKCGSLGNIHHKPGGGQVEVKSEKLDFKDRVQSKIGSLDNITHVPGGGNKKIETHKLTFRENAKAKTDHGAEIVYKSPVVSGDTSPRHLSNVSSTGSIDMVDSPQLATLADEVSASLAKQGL
T2 sequence (P10636 1-412 isoform P10636-7): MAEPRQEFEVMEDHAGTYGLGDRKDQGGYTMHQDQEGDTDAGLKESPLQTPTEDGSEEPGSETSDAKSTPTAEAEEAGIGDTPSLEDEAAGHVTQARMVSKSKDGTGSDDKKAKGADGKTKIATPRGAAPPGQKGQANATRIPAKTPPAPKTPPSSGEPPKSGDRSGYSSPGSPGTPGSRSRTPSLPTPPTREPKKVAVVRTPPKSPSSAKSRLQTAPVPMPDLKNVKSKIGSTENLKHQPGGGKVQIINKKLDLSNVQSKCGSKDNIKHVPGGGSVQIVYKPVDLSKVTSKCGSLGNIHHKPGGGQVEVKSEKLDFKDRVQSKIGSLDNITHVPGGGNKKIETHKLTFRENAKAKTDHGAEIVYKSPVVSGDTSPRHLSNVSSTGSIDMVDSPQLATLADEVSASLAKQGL

`CN(C)c1ccc(/C=C/C=C/c2nc3ccc(Br)nc3s2)cc1` [Compound PT, 4-((1E,3E)-4-(5-bromothiazolo[5,4-b]pyridin-2-yl)butadien-1,3-dien-1-yl)-N,N-dimethylaniline]: in data set [1], the “λmax (nm), maximum absorption wavelength” value is recorded as 437 nm.
Take `Brc1cnc2nc(/C=C/C=C/c3cc4c5c(c3)CCCN5CCC4)sc2n1` [Compound J, 6-Bromo-2-((1E,3E)-4-(2,3,6,7-tetrahydro-1H,5H-pyrido[3,2,1-ij]quinolin-9-yl)butadien-1,3-dien-1-yl)thiazolo[4,5-b]pyrazine]: the “λmax (nm), maximum absorption wavelength” value in data set [1] is reported as 508 nm. Further, the “crosslinked product (more than 250 kDa) of the photooxygenation reaction” value (shortened to “crosslinked product (more than 250 kDa)”) in data set [2] (setting [4]) was “detected”.
Regarding `CN1CCCc2cc(/C=C/C=C/c3nc4ncc(Br)nc4s3)ccc21` [Compound Q, 6-Bromo-2-((1E,3E)-4-(1-methyl-1,2,3,4-tetrahydroquinolin-6-yl)butadiene-1,3-dien-1-yl)thiazolo[4,5-b]pyrazine], the “λmax (nm), maximum absorption wavelength” value in data set [1] worked out at 500 nm. Moreover, the “crosslinked product (more than 250 kDa)” value in data set [2] (setting [4]) is on record as “detected”. The “oxygenation level of methionine compared with control (Vehicle)” value in data set [3] is “did not change”.
With `OCCN1CCCc2cc(/C=C/C=C/c3nc4ncc(Br)nc4s3)ccc21` [Compound C2OH, 2-(6-((1E,3E)-4-(6-bromothiazolo[4,5-b]pyrazin-2-yl)butadien-1,3-dien-1-yl)-3,4-dihydroquinolin-1(2H)-yl)ethane-1-ol], the “photooxygenation activity relative to the compound Q” value in data set [2] (1 μM compound, 595 nm 15 minutes, quantified by Western blotting) is listed as “twice or more”. In data set [2] (1 μM compound, 10 minutes incubation, light-dependent, FIG. 3), the “crosslinked product (more than 250 kDa)” value is listed as “detected”.
With `CN(C)c1ccc(/C=C/C=C/c2nc3ncc(Br)nc3s2)cc1` [Compound PzT, 4-((1E,3E)-4-(6-Bromothiazolo[4,5-b]pyrazin-2-yl)butadien-1,3-dien-1-yl)-N,N-dimethylaniline], the “λmax (nm), maximum absorption wavelength” value in data set [1] is reported as 468 nm. Moreover, the “crosslinked product (more than 250 kDa)” value in data set [2] (setting [4]) is “detected”.
The corresponding values for `COc1cc(N(C)C)cc(OC)c1/C=C/C=C/c1nc2ncc(Br)nc2s1` [Compound OMe, 4-((1E,3E)-4-(6-Bromothiazolo[4,5-b]pyrazin-2-yl)butadien-1,3-dien-1-yl)-3,5-dimethoxy-N,N-dimethylaniline] are 495 nm and “detected”.
